This is an account of results in patent US20050080113A1, “Medicinal compositions” (priority 2001, published 2005).

As to `COc1ccc(C(=O)Nc2nc(-c3cc(C)cc(C)c3)c(-c3ccnc(C)c3)s2)cn1` [H 48-3, N-[4-(3,5-dimethylphenyl)-5-(2-methyl-4-pyridyl)-1,3-thiazol-2-yl]-6-methoxynicotinamide], the melting point was in the range of 242 to 244 °C. In the case of `COc1ncccc1C(=O)Nc1nc(-c2cccc(C)c2)c(-c2ccnc(C)c2)s1` [H 49, 2 methoxy-N-[4 (3-methylphenyl)-5 (2 methyl-4 pyridyl)-1,3 thiazol-2-yl]nicotinamide] it was 169 to 170 °C.

As for `COc1ccc(-c2nc(NC(C)=O)sc2-c2ccnc(N)c2)cc1` [H 50, N-[5 (2 amino-4 pyridyl)-4-(4 methoxyphenyl)-1,3 thiazol-2 yl]acetamide], the melting point fell in the range of 247 to 250 °C. Compound `COc1ccc(-c2nc(NC(=O)c3ccccc3)sc2-c2ccnc(N)c2)cc1` [H 51, N-[5 (2 amino-4 pyridyl)-4-(4 methoxyphenyl)-1,3 thiazol-2 yl]benzamide] showed a melting point of 219 to 222 °C. With `Cc1cccc(-c2sc(NC(=O)Nc3ccccc3)nc2-c2cc(C)nc(C)c2)c1` [H 52, N-[4 (2,6 dimethyl-4 pyridyl)-5 (3 methylphenyl)-1,3 thiazol-2 yl]-N′-phenylurea], the melting point fell in the range of 173 to 174 °C. In the case of `Cc1cc(C)cc(-c2nc(NC(=O)Nc3ccccc3)sc2-c2cc(C)nc(C)c2)c1` [H 53-1, N-[4 (3,5 dimethylphenyl)-5 (2,6 dimethyl-4 pyridyl)-1,3 thiazol-2 yl]-N′-phenylurea] it was 219 to 222 °C; in that of `Cc1cccc(-c2nc(NC(=O)Nc3ccccc3)sc2-c2ccnc(NC3CCCCC3)c2)c1` [H 53-2, N-[5 (2 cyclohexylamino-4-pyridyl)-4 (3 methylphenyl)-1,3 thiazol-2 yl]-N′-phenylurea], 198 to 199 °C. Compound `Cc1cccc(-c2nc(NC(=O)Nc3ccccc3)sc2-c2ccnc(NC3CCCC3)c2)c1` [H 53-3, N-[5 (2 cyclopentylamino-4 pyridyl)-4 (3 methylphenyl)-1,3 thiazol-2 yl]-N′-phenylurea] gave a melting point of 188 to 190 °C. Compound `Cc1cccc(-c2nc(NC(=O)Nc3ccccc3)sc2-c2ccnc(C)c2)c1` [H 53-4, N-[4 (3 methylphenyl)-5-(2 methyl-4 pyridyl)-1,3 thiazol-2 yl]-N′-phenylurea] came in with a melting point of 168 to 169 °C. As for `Cc1cccc(-c2nc(-c3ccc([S+](C)[O-])cc3)sc2-c2ccnc(C)c2)c1` (stereo not drawn) [H 54, 4-(3-methylphenyl)-5-(2-methyl-4-pyridyl)-2-(4-methylsulfinylphenyl)-1,3-thiazole], the figure is 128 to 130 °C; as for `Cc1cccc(-c2nc(-c3ccc([S+](C)[O-])cc3)sc2-c2cc(C)nc(C)c2)c1` (stereo not drawn) [H 55, 5 (2,6 dimethyl-4 pyridyl)-4 (3 methylphenyl)-2 (4-methylsulfinylphenyl)-1,3 thiazole], 133 to 134 °C. As for `Cc1cc(C)cc(-c2nc(-c3ccc([S+](C)[O-])cc3)sc2-c2ccnc(C)c2)c1` (stereo not drawn) [H 56-1, 4 (3,5 dimethylphenyl)-5-(2 methyl-4 pyridyl)-2 (4 methylsulfinylphenyl)-1,3 thiazole], the figure is 151 to 153 °C. Regarding `Cc1cc(C)cc(-c2nc(-c3ccc([S+](C)[O-])cc3)sc2-c2cc(C)nc(C)c2)c1` (stereo not drawn) [H 56-2, 4 (3,5 dimethylphenyl)-5-(2,6 dimethyl-4 pyridyl)-2 (4 methylsulfinylphenyl)-1,3-thiazole], the melting point is 151 to 154 °C. Regarding `Cc1cc(C)cc(-c2nc(-c3ccc(S(C)(=O)=O)cc3)sc2-c2ccnc(C)c2)c1` [H 58-1, 4 (3,5 dimethylphenyl)-5-(2 methyl-4 pyridyl)-2 (4 methylsulfonylphenyl)-1,3 thiazole], the melting point was 196 to 197 °C. `Cc1cccc(-c2nc(-c3ccc(S(C)(=O)=O)cc3)sc2-c2cc(C)nc(C)c2)c1` [H 58-2, 5 (2,6 dimethyl-4-pyridyl)-4 (3 methylphenyl)-2 (4 methylsulfonylphenyl)-1,3-thiazole] returned a melting point of 182 to 184 °C. Take `Cc1cc(C)cc(-c2nc(-c3ccc(S(C)(=O)=O)cc3)sc2-c2cc(C)nc(C)c2)c1` [H 58-3, 4 (3,5 dimethylphenyl)-5-(2,6 dimethyl-4 pyridyl)-2 (4 methylsulfonylphenyl)-1,3-thiazole]: the melting point lay in the range of 217 to 220 °C. As for `Cc1cccc(-c2nc(-c3ccc(S(C)(=O)=O)cc3)sc2-c2ccnc(F)c2)c1` [H 58-4, 5-(2-fluoro-4-pyridyl)-4-(3-methylphenyl)-2-(4-methylsulfonylphenyl)-1,3-thiazole], the melting point lay in the range of 195 to 199 °C.

On to `Cc1cc(-c2sc(-c3ccc(S(C)(=O)=O)cc3)nc2-c2ccc(F)cc2)ccn1` [H 58-5, 4 (4 fluorophenyl)-5 (2-methyl-4 pyridyl)-2 (4 methylsulfonylphenyl)-1,3 thiazole], for which the melting point lay within 190 to 192 °C.

`CC(=O)Nc1cc(-c2sc(-c3ccc(S(C)(=O)=O)cc3)nc2-c2cccc(Cl)c2)ccn1` [H 58-6, N-[4-[4-(3-chlorophenyl)-2-(4-methylsulfonylphenyl)-1,3-thiazol-5-yl]-2-pyridyl]acetamide] showed a melting point of 216 to 217 °C. `CC(C)(C)C(=O)Nc1cc(-c2sc(-c3ccc(S(C)(=O)=O)cc3)nc2-c2cccc(Cl)c2)ccn1` [H 58-8, N-[4-[4-(3-chlorophenyl)-2-(4-methylsulfonylphenyl)-1,3-thiazol-5-yl]-2-pyridyl]pivalamide] displayed a melting point of 122 to 123 °C. `Cc1cc(C)cc(-c2nc(-c3ccc(S(C)(=O)=O)cc3)sc2-c2cc[n+]([O-])c(C)c2)c1` [H 59, 4 [4 (3,5 dimethylphenyl)-2 (4 methylsulfonylphenyl)-1,3-thiazol-5 yl]-2 methylpyridine N-oxide] had a melting point of 255 to 256 °C. With `Cc1cccc(-c2nc(NC(=O)OCCCl)sc2-c2ccnc(C)c2)c1` [H 62, 2 chloroethyl [4 (3-methylphenyl)-5 (2 methyl-4 pyridyl)-1,3 thiazol-2-yl]carbamate], the melting point lay within 156 to 158 °C. In the case of `CONC(=O)Nc1nc(-c2cccc(C)c2)c(-c2ccnc(C)c2)s1` [H 63, N-methoxy-N′-[4 (3 methylphenyl)-5 (2 methyl-4 pyridyl)-1,3-thiazol-2 yl]urea] it was 194 to 195 °C; in that of `Cc1cccc(-c2nc(NC(=O)NOc3ccccc3)sc2-c2ccnc(C)c2)c1` [H 64, N-[4 (3 methylphenyl)-5 (2-methyl-4 pyridyl)-1,3 thiazol-2 yl]-N′-phenyloxyurea], 154 to 155 °C.

Regarding `Cc1cccc(C2=NCSC2(c2ccnc(C)c2)N2CCOC2=O)c1` (stereo not drawn) [H 65, 3 [4 (3 methylphenyl)-5 (2 methyl-4 pyridyl)-1,3 thiazol-5-yl]-oxazolidin-2 one], the melting point lay in the range of 80 to 82 °C.

In the case of `Cc1cccc(-c2nc(N3CCNC3=O)sc2-c2ccnc(C)c2)c1` [H 66, 1 [4 (3 methylphenyl)-5 (2-methyl-4 pyridyl)-1,3 thiazol-2 yl]imidazolidin-2 one], the melting point was 200 to 201 °C. In turn, `Cc1cccc(-c2nc(N3CCN(c4ccccc4)C3=O)sc2-c2ccnc(C)c2)c1` [H 67, 1 [4 (3 methylphenyl)-5 (2 methyl-4 pyridyl)-1,3 thiazol-2-yl]-3 phenylimidazolidin-2 one] showed a melting point of 180 to 182 °C. `Cc1cccc(-c2nc(-c3ccc(S(C)(=O)=O)cc3)sc2-c2cc[n+]([O-])c(C)c2)c1` [H 68-1, 4 [4 (3 methylphenyl)-2-(4 methylsulfonylphenyl)-1,3 thiazol-5 yl]-2 methylpyridine N-oxide] yielded a melting point of 197 to 198 °C.

Consider `CCc1nc(-c2cccc(C)c2)c(-c2ccnc(CC#N)c2)s1` [H 71, 5 (2 cyanomethyl-4 pyridyl)-2 ethyl-4 (3 methylphenyl)-1,3-thiazole], for which the melting point was in the range of 68 to 69 °C. In turn, `Cc1cccc(-c2nc(-c3ccc(S(C)(=O)=O)cc3)sc2-c2ccnc(CO)c2)c1` [H 72, 4 [4 (3 methylphenyl)-2 (4 methylsulfonylphenyl)-1,3 thiazol-5 yl]-2 pyridylmethanol] yielded a melting point of 172 to 173 °C.

The compound `CCc1nc(-c2cccc(Br)c2)c(-c2ccnc(NC(=O)OC(C)(C)C)c2)s1` [H 75-1, 4 (3 bromophenyl)-5 [2-(tert-butoxycarbonylamino)-4 pyridyl]-2 ethyl-1,3 thiazole] yielded a melting point of 172 to 174 °C.

For the compound `CCc1nc(-c2cccc(Br)c2)c(-c2ccnc(N)c2)s1` [H 75-2, 4 [4 (3 bromophenyl)-2-ethyl-1,3 thiazol-5 yl]-2 pyridylamine], the melting point was in the range of 132 to 134 °C. `CCc1nc(-c2cccc(C#N)c2)c(-c2ccnc(N)c2)s1` [H 76, 4 [4 (3 cyanophenyl)-2 ethyl-1,3 thiazol-5 yl]-2 pyridylamine] had a melting point of 178 to 179 °C.

With `CCc1nc(-c2cccc(C(=O)O)c2)c(-c2ccnc(N)c2)s1` [H 77, 3 [5 (2 amino-4 pyridyl)-2 ethyl-1,3 thiazol-4 yl]benzoic acid], the melting point was in the range of 273 to 274 °C. As for `CCc1nc(-c2cccc(C(=O)OC)c2)c(-c2ccnc(N)c2)s1` [H 78, methyl 3 [5 (2 amino-4 pyridyl)-2 ethyl-1,3 thiazol-4-yl]benzoate], the melting point was in the range of 173 to 174 °C. `CCc1nc(-c2ccccc2)c(-c2ccnc(NC(=O)OC(C)(C)C)c2)s1` [H 79-1, 5 [2 (tert-butoxycarbonylamino)-4 pyridyl]-2 ethyl-4 phenyl-1,3 thiazole] returned a melting point of 154 to 155 °C. For `CC(C)(C)OC(=O)N1CCC(c2nc(-c3cccc(Cl)c3)c(-c3ccnc(N)c3)s2)CC1` [H 80, 4 [2 (1 tert-butoxycarbonylpiperidin-4 yl)-4 (3 chlorophenyl)-1,3 thiazol-5 yl]-2 pyridylamine], the melting point was 143 to 145 °C. Regarding `CCc1nc(-c2ccccc2)c(-c2ccnc(NC(C)=O)c2)s1` [H 82-1, N-[4 (2 ethyl-4 phenyl-1,3-thiazol-5 yl)-2 pyridyl]acetamide], the melting point was in the range of 175 to 176 °C. In the case of `CCc1nc(-c2ccc(F)cc2)c(-c2ccnc(NC(C)=O)c2)s1` [H 82-2, N-[4 [2 ethyl-4 (4-fluorophenyl)-1,3 thiazol-5 yl]-2 pyridyl]acetamide] it was 190 to 191 °C.

By melting point is commonly meant the temperature of the solid-liquid transition.
